# Assays:
# non-infected H9 cells = conditions: 4 days incubation in vitro
# Excerpt: Lithium gamma linolenate (LiGLA) for this study was obtained from Enfamol, Kentville, Nova Scotia, Canada.
# [1] = tested on: CFU-GM (Myeloid) of normal bone marrow cells; assay: AZT bone marrow toxicity in vitro, CFU-GM colony formation; format: cell-based; further: unit not given here
# Excerpt: (§1) This is a standard practice.
# [2] = tested on: BFU-E (Erythroid) of normal bone marrow cells; assay: AZT bone marrow toxicity in vitro, BFU-E colony formation; format: cell-based; further: unit not given here
# Excerpt: as §1
# [3] = tested on: CFU-Meg (Megakaryocyte) of normal bone marrow cells; assay: AZT bone marrow toxicity in vitro, CFU-Meg colony formation; format: cell-based; further: unit not given here
# Excerpt: as §1
# [4] = tested on: H9 cells that are chronically infected with HIV; assay: LiGLA 4 days incubation in vitro with H9 cells chronically infected with HIV; format: cell-based
smiles,measurement,setting,value
"CCCCC/C=C\C/C=C\C/C=C\CCCCC(=O)[O-].[Li+] [Li-GLA, lithium gamma-linolenate]",H9 cells killed,non-infected H9 cells,20%
same,CFU-GM (Myeloid) colonies,[1]; Li-GLA 10 μg/ml,66.5
same,CFU-GM (Myeloid) colonies,[1]; Li-GLA 15 μg/ml,55.5
same,CFU-GM (Myeloid) colonies,[1]; Li-GLA 20 μg/ml,45.0
same,BFU-E (Erythroid) colonies,[2]; Li-GLA 10 μg/ml,50 ± 4
same,BFU-E (Erythroid) colonies,[2]; Li-GLA 15 μg/ml,44 ± 4
same,BFU-E (Erythroid) colonies,[2]; Li-GLA 20 μg/ml,31 ± 3
same,CFU-Meg (Megakaryocyte) colonies,[3]; Li-GLA 10 μg/ml,32.0 ± 3
same,CFU-Meg (Megakaryocyte) colonies,[3]; Li-GLA 15 μg/ml,28.0 ± 4
same,CFU-Meg (Megakaryocyte) colonies,[3]; Li-GLA 20 μg/ml,24.0 ± 3
same,H9 cells killed,[4],90%
